Assay results from patent US12268702B2, “Antitumor pharmaceutical composition comprising azvudine and chemotherapeutic agent” (HENAN GENUINE BIOTECH CO., LTD., priority 2023, dated 2025).

Tested on: A2058 xenograft tumor model
Assay: Human melanoma A2058 cell subcutaneous xenograft tumor model
Assay type: in vivo
Settings: azvudine 1 mg/kg, dacarbazine 60 mg/kg, combination 1 + 60 mg/kg; for Tumor volume (mm^3) on the 14th day: 14th day of administration
Procedure: Human melanoma cells A2058 (Cat. No.: CRL-11147) were cultured in vitro as a monolayer in DMEM medium containing 10% fetal bovine serum, 100 U/mL penicillin and 100 μg/mL streptomycin, in a 37° C. and 5% CO2 incubator. The cells were routinely digested with trypsin-EDTA and passaged twice a week. When the cell saturation reached 80%-90% and the cell number achieved the requirement, the cells were collected, counted and inoculated.
0.2 mL (5×10^6) of A2058 cells were added with Matrigel, and the mixture was subcutaneously inoculated on the right back of each mouse. The grouping administration was started when the average tumor volume reached about 136 mm^3.

[1] = based on tumor volume, 14th day

CN(C)/N=N/c1[nH]cnc1C(N)=O [Dacarbazine, dacarbazine]
Tumor volume (mm^3) on the 14th day: 1,255 ± 186 mm^3 | Tumor volume (mm^3) on the 14th day (listed as dacarbazine): 1255 mm^3 | T/C (%) [1]: 44.77% | TGI (%) [1]: 56.74%
